Results published in patent US20020065326A1, “Patient oxygenation using stabilized fluorocarbon emulsions” (priority 1992, published 2002).
Like-named read-outs stand apart in the source and are kept apart here. Marks after values point to notes of the source that are not given here.

Key:
[1] = in vivo
Text: Traditionally, the molecular weight region from 460-550 g/mol has been considered optimal for blood substitute applications. The lower cutoff is related to the formation of gas emboli for fluorocarbons with vapor pressures greater than 20 torr. The upper cutoff is limited to compounds with organ retention times of less than 3 weeks.
The lower limit is defined by fluorocarbons with vapor pressures greater than 20 torr which causes gas emboli, while the upper limit is defined by fluorocarbons with organ retention times of less than 3 weeks.

[2] = Critical solution temperature (CST) versus hexane; format: physicochemical
Protocol: Critical solution temperature for fluorocarbon liquids was measured in the following manner: Equivolume mixtures of the test fluorocarbon and hydrocarbon (e.g., hexane) are placed in a sealed vial and submerged in a temperature controlled water bath. Samples are cooled until two distinct phases are present. At this point, the temperature is increased slowly. The lowest temperature at which the two phases are completely miscible (i.e., a single liquid phase) is defined as the CST.
For comparison purposes, all CST temperatures used in this patent are reported versus hexane. It is often not possible, however, to measure the CST for lipophilic fluorocarbons versus hexane, since the CSTs for these substances are very low. Thus, the CST for lipophilic substances is often measured in longer chain length hydrocarbons, and the value versus hexane is determined via extrapolation of linear plots of CST vs. alkane chain length.

[3] = critical solution temperature vs hexane; prior art minor components discussed in literature; cited from earlier work
[4] = cited from earlier work; for t½: organ retention half life, prior art / nonlipophilic fluorocarbons from literature
[5] = vs hexane, estimated from extrapolations of linear plots of CST vs. hydrocarbon chain length

Compound | CSTH [3] | t½ [4] | further results
FC1(F)C(F)(F)C(F)(F)C2(F)C(F)(F)C(F)(F)C(F)(F)C(F)(F)C2(F)C1(F)F (stereo not drawn) [F-decalin, perfluorodecalin] | – | – | half-life ([1]; t½): 7 days; CSTH ([2]; critical solution temperature vs hexane, Present Study): 22 C
FC(F)(F)C(F)(F)C(F)(F)C(F)(F)C(F)(F)C(F)(F)C(F)(F)C(F)(F)C(F)(F)C(F)(F)Br [F-decyl bromide, perfluorodecyl bromide] | – | – | organ half-life versus prescribed cutoff [1]: less than 3 week; organ retention time compared with that predicted from the molecular weight [1]: less than be predicted from the molecular weight; t½ (calculated half life in vivo in organs of the RES) [1]: (18) days; half-life ([1]; t½ (calculated half life in vivo in organs of the RES)): ~18 days; critical solution temperature compared with prior art stabilizers (in words) ([2]; vs hexane, at comparable molecular weight): dramatically lower; CSTH [2, 5]: (19)^a C
FC1(F)OC(F)(F)C(F)(F)N(C(F)(F)C(F)(F)N2C(F)(F)C(F)(F)OC(F)(F)C2(F)F)C1(F)F [F-dimorpholinoethane] | 38 C | 24 days | –
FC1(F)OC(F)(F)C(F)(F)N(C(F)(F)C(F)(F)C(F)(F)C(F)(F)C(F)(F)N2C(F)(F)C(F)(F)OC(F)(F)C2(F)F)C1(F)F [F-dimorpholinopentane] | 60 C | 280 days | –
FC1(F)OC(F)(F)C(F)(F)N(C(F)(F)C(F)(F)C(F)(F)N2C(F)(F)C(F)(F)OC(F)(F)C2(F)F)C1(F)F [F-dimorpholinopropane] | 45 C | 50 days | –
FC(F)(F)C(F)(F)C(F)(F)C(F)(F)C(F)(F)C(F)(F)Br [F-hexyl bromide, 1-bromotridecafluorohexane] | – | – | half-life ([1]; in vivo): 2 days
FC(F)(F)C(F)(F)C(F)(F)C(F)(F)C(F)(F)C(F)(F)C(F)(F)C(F)(F)Br [F-octyl bromide, perfluorooctyl bromide] | – | – | organ retention time compared with that predicted from the molecular weight [1]: less than be predicted from the molecular weight; half-life ([1]; t½): 4 days; CSTH [2, 5]: (−19)^a C; ratio of half-lives for PFOB/FDC ([4]; used to scale FIG. 6 values): 4/7
FC1(F)C(F)(F)C(F)(F)C2(F)C(F)(C1(F)F)C(F)(F)C(F)(F)C1(F)C(F)(F)C(F)(F)C(F)(F)C(F)(F)C12F (stereo not drawn) [F-perhydrophenanthrene] | 48 C | – | –
FC1(F)OC(F)(F)C(F)(F)N(C2(F)C(F)(F)C(F)(F)C(F)(F)C(F)(F)C2(F)F)C1(F)F [F—N-cyclohexylmorpholine] | 31 C | 13 days | –
F-dip;peridinopropane | 56 C | 282 days | –
F-dipipendine | 36 C | – | –
F-dipiperidinobutane | 72 C | 1460 days | –
F-dipiperidinoethane | 49 C | 124 days | –
F-dipiperidinomethane | 42 C | 55 days | –
F—N-methylcyclohexylpiperidine | 40 C | 60 days | –
